Experiment: Storage stability of the solid state form
Format: physicochemical
Method: Crystalline Form C2 of Zavegepant hydrochloride may have one or more advantageous properties, as discussed herein above. For example, Form C2 is stable for a period of at least for 6 months at temperature of about 25° C. and a relative humidity (“RH”) of 60% RH, and at a temperature of about 40° C. and 75% RH.

Structure (SMILES): Cc1cc(C[C@@H](NC(=O)N2CCC(c3cc4ccccc4[nH]c3=O)CC2)C(=O)N2CCN(C3CCN(C)CC3)CC2)cc2cn[nH]c12 [Form C2, (R)N-(3-(7-methyl-1H-indazol-5-yl)-1-(4-(1-methylpiperidin-4-yl)piperazin-1-yl)-1-oxopropan-2-yl)-4-(2-oxo-1,2-dihydroquinolin-3-yl)piperidine-1-carboxamide]
- period for which the form is stable (temperature of about 25° C., 60% RH): ≥ 6 months
- period for which the form is stable (temperature of about 40° C., 75% RH): ≥ 6 months

From US20250276959A1, “SOLID STATE FORMS OF ZAVEGEPANT HYDROCHLORIDE AND PROCESS FOR PREPARATION THEREOF” (TEVA CZECH INDUSTRIES S.R.O., priority 2022, published 2025)
